Measured values as given in US9029332B2, “Cross-linked peptides and proteins, methods of making same, and uses thereof” (The Research Foundation for The State University of New York, priority 2010, dated 2015).
One block for each molecule: values may come before it. Numbered stars: 1 amine (or outer) side, 2 acyl side, 3 side chain; on linkers, the order of the positions; unused ones are H or OH. Bridge positions count the residues as written; N and C are the ends. Square brackets hold non-standard residues; d marks the D form. Ends that are not written are not given here. Peptide text beside a SMILES is read from it. BMA = bismethylene aryl moiety linked through two thioether bonds; CH2(3,3'-bipyridine-6,6')CH2 = c1cc(C[*:1])ncc1-c1ccc(C[*:2])nc1; Biphenyl(4,4'-CH2)2 = c1cc(-c2ccc(C[*:2])cc2)ccc1C[*:1]

Experiments:
GST-Bcl-xL = GST-Bcl-xL (Homo sapiens, UniProt Q07817); assay: FP binding affinity of fluorescein-labeled peptides, Bcl-xL
HeLa cells [1] = assay: FACS analysis of cell permeability of fluorescein-conjugated peptides; assay type: cell-based; conditions: 10 μM fluorescein-conjugated peptide, 2 h
Experimental: FACS Analysis. HeLa Cells were cultured in DMEM medium supplemented with 10% fetal bovine serum in 6-well plate in a 37° C., 5% CO2 incubator to reach confluency of around 70%. The cells were then washed twice with PBS before switching to serum-free DMEM medium. After standing in the incubator for 30 minutes, appropriate amounts of peptides (1 mM in DMSO) were added to the culture plate to obtain a final peptide concentration of 10 μM. Cells were incubated at 37° C. for additional 2 hrs. Then the medium was removed and the cells were washed with PBS (3×) followed by treatment with trypsin to detach the cells. After a brief low-speed centrifugation, the HeLa cells were collected and re-suspended in PBS for the FACS analysis.

HeLa cells [2] = assay: Cell viability assay (CellTiter-Glo, ATP) and DIC imaging, cytotoxicity; assay type: cell-based; conditions: 10 μM, 2 hours; DIC channel and ATP assay
Experimental: FIG. 8. (a) Confocal images of fixed HeLa cells after treatment with 10 μM of fluorescein-conjugated peptides for 2 hours. Scale bar=50 μm. (b) Cell viability assay using the CellTiter-Glo reagent.
Cell Viability Assay. HeLa cells were seeded into an opaque 96-well plate at a density of 1×10^4 per well in 100 μL DMEM medium supplemented with 10% FBS and the cells were allowed to grow in a 37° C. 5% CO2 incubator for 48 hrs to reach confluency of around 80%. Prior to the compound treatment, the medium was replaced with serum-free medium and the cells were incubated for 30 minutes. Appropriate amounts of peptides (1 mM in DMSO) were then added to obtain a final concentration of 10 μM and the cells were incubated at 37° C. for 2 hours. Afterwards, the plate was allowed to stand at room temperature for 30 minutes before 100 μL of Cell-Titer Glow reagent (Promega) was added. The plate was incubated at room temperature for 10 minutes. The luminescence signals were recorded with an FLX 800 luminescence plate reader (BioTek). The plotted data represented the average of the readings from 4 separate wells.

[3] = biological target: T1, full-length human MDMX (GST-MDMX) (Homo sapiens, UniProt O15151); assay: ELISA, inhibition of p53-MDMX interaction; assay type: binding; conditions: relative to linear counterpart 3
T1 construct: GST-MDM2 and GST-MDMX containing full-length human MDM2 and MDMX; made in house; host or cells: Escherichia coli
T1 sequence (O15151 1-490): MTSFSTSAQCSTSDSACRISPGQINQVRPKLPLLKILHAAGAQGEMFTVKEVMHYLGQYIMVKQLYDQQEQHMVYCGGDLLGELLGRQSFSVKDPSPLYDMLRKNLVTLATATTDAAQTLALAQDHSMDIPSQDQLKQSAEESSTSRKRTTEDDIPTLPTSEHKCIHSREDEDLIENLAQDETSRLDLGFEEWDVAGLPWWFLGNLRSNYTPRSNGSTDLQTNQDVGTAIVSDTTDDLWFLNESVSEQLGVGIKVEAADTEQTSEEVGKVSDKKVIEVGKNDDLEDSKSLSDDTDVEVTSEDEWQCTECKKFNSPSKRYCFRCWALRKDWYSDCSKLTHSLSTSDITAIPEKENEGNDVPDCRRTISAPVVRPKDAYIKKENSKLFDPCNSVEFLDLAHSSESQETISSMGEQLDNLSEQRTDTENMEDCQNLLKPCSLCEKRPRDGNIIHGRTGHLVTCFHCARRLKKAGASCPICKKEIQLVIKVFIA
Excerpt: FIG. 10. ELISA data of the cross-linked PDI analogs. The experiments were repeated three times and the resulting data were plotted with GraphPad Prism 5.0 to derive the average IC50 values along with standard deviations.
ELISA Assay. GST-MDM2 and GST-MDMX containing full-length human MDM2 and MDMX and His6-tagged human p53 were expressed in Escherichia coli and purified by glutathione agarose and Ni^2+-nitrilotriacetic acid beads, respectively, under non-denaturing conditions. Microtiter plates were coated with 2.5 μg/ml His6-p53 in PBS buffer for 16 hours. After washing with PBS containing 0.1% Tween-20 (PBST), the plates were blocked with PBST containing 5% nonfat dry milk (PBSTM) for 30 minutes. Peptides were dissolved in DMSO. GST-MDM2 and MDMX (5 μg/ml) were mixed with peptides in PBSMT containing 10% glycerol and 10 mM dithiolthreitol prior to their additions to the wells at the specified concentrations. The incubation was allowed to proceed for 1 hour at room temperature before the plates were washed with PBST. […] The plates were developed by incubation with TMB peroxidase substrate (KPL, Gaithersburg, Md.) and measured by absorbance at 450 nm. The data was analyzed with the Origin 6.0 software. […]

[4] = Circular dichroism, percent helicity; assay type: physicochemical; conditions: compared to the linear NoxaBH3 peptide, 50 μM in 20% ACN/H2O
Experimental: FIG. 12. […] The peptides were dissolved in 20% ACN/H2O for a final concentration of 50 μM.
Circular Dichroism Study. […] The spectra were recorded in the wavelength range of 190-250 nm and averaged over 3 scans with a resolution of 0.5 nm, a bandwidth of 1.0 nm and a response time of 4 s. The sensitivity and the speed of the spectrometer were set to 100 mdeg and 50 nm/min, respectively. All peptides were dissolved in 20% acetonitrile/H2O to reach final concentration of 50 μM.

Mcl-1 [5] = biological target: Mcl-1 (Homo sapiens, UniProt Q07820); assay: ELISA of cross-linked Noxa peptides; assay type: binding
GST-Mcl-1 = GST-Mcl-1 (Homo sapiens, UniProt Q07820); assay: Competitive fluorescence polarization assay; assay type: binding; conditions: for IC50: Noxa peptides, three repeats ± SD, read-out: FP, IC50
Experimental: Competitive Florescence Polarization Assay. The binding affinity of the Noxa peptides toward GST-Mcl-1 was determined in a competitive fluorescence polarization assay with the fluorescein-labeled Bak or Bim. Briefly, fluorescein-labeled Bak was incubated with GST-Mcl-1 in a binding buffer (PBS, 0.005% Tween-20, pH7.4) at room temperature in a 96-well microtiter plate. […] The reading was repeated at various time points to ensure that the competition has reached equilibrium.

chymotrypsin = chymotrypsin (Bos taurus, UniProt P00766); assay: Chymotrypsin proteolytic stability assay; conditions: cattle (bovine), chymotrypsin (Type II, Sigma) in NH4HCO3 buffer, pH 8
Experimental: Proteolytic stability of the linear and stapled Noxa peptides against trypsin (Type IX-S, 13,000-20,000 unit/mg, Sigma) and chymotrypsin (Type II, 40 unit/mg, Sigma). To a solution of 400 μL of 0.25 mM peptide in NH4HCO3 buffer, pH 8.0, was added 80 μL trypsin (5 μg/mL) or chymotrypsin (25 μg/mL), and the resulting solution was incubated at 37° C. At the indicated times, 40 μL of the solution was transferred to 40 μL trifluoroacetic acid to quench the reaction. The samples were analyzed by reverse-phase HPLC using benzophenone as an injection control.

Mcl-1 [6] = biological target: Mcl-1 (Mus musculus, UniProt P97287); conditions: background literature; read-out: IC50 against Mcl-1; cited from earlier work
Chain of Mcl-1 (Mus musculus, UniProt P97287) (P97287 152-308 limits assumed): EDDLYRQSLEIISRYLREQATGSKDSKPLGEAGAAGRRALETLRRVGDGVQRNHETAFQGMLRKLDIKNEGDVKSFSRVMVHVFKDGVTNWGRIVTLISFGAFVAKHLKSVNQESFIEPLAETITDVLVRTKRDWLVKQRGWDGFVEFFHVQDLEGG

Chain of GST-Mcl-1 (Q07820 whole entry): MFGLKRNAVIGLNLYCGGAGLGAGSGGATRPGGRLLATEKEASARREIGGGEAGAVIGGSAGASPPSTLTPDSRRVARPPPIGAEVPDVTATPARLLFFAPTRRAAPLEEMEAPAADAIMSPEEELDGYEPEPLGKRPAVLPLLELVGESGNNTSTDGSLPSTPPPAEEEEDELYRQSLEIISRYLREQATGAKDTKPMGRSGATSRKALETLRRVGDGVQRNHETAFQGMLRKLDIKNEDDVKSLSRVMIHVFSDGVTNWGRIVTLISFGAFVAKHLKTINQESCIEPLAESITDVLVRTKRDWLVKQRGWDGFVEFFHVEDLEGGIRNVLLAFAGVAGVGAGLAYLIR
Chain of Mcl-1 (Homo sapiens, UniProt Q07820) (Q07820 whole entry, species assumed): as the sequence (Q07820 whole entry) above
Chain of GST-Bcl-xL (Q07817 whole entry): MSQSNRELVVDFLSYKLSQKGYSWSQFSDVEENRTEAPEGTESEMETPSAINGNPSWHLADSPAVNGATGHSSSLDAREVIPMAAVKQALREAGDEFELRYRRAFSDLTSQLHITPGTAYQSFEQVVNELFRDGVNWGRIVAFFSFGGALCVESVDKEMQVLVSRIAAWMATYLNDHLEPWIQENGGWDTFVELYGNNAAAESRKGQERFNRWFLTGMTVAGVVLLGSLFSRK

Molecule: CC[C@H](C)[C@H](NC(=O)[C@H](CCCNC(=N)N)NC(=O)[C@H](CCCNC(=N)N)NC(=O)[C@H](CC(C)C)NC(=O)[C@H](CCC(N)=O)NC(=O)[C@H](C)NC(=O)[C@H](C)NC(=O)CCCCCNC(=S)Nc1ccc2c(c1)C(=O)OC21c2ccc(O)cc2Oc2cc(O)ccc21)C(=O)NCC(=O)N[C@@H](CC(=O)O)C(=O)N[C@@H](CCCCN)C(=O)N[C@H](C(=O)N[C@@H](CC(N)=O)C(=O)N[C@@H](CC(C)C)C(=O)N[C@@H](CCCNC(=N)N)C(=O)N[C@@H](CCC(N)=O)C(=O)N[C@@H](CCCCN)C(=O)N[C@@H](CC(C)C)C(=O)N[C@@H](CC(C)C)C(=O)N[C@@H](CC(N)=O)C(N)=O)C(C)C [Fl-NoxaB^75-93-C75A]
Kd (GST-Bcl-xL): > 2000 nM

Molecule: CC(=O)N[C@@H](CC(C)C)C(=O)N[C@H](C(=O)N[C@@H](Cc1ccccc1)C(=O)N[C@@H](CS)C(=O)N[C@@H](Cc1c[nH]cn1)C(=O)N[C@@H](Cc1ccc(O)cc1)C(=O)N[C@@H](Cc1c[nH]c2ccccc12)C(=O)N[C@@H](C)C(=O)N[C@@H](CCC(N)=O)C(=O)N[C@@H](CC(C)C)C(=O)N[C@@H](CS)C(=O)N[C@@H](CO)C(N)=O)[C@@H](C)O [Peptide 1] (Ac-LTFCHYWAQLCS-NH2)
cell penetration (HeLa cells [1]; relative to DMSO control): minimal cell penetration

Molecule: CC(=O)N[C@@H](CC(C)C)C(=O)N[C@H](C(=O)N[C@@H](Cc1ccccc1)C(=O)N[C@H]1CSCc2ccc(cn2)-c2ccc(nc2)CSC[C@@H](C(=O)N[C@@H](CO)C(N)=O)NC(=O)[C@H](CC(C)C)NC(=O)[C@H](CCC(N)=O)NC(=O)[C@H](C)NC(=O)[C@H](Cc2c[nH]c3ccccc23)NC(=O)[C@H](Cc2ccc(O)cc2)NC(=O)[C@H](Cc2c[nH]cn2)NC1=O)[C@@H](C)O [Peptide 1b, LTFC″HYWAQLC″S] (Ac-LTFCHYWAQLCS-NH2; linker 4-11 via CH2(3,3'-bipyridine-6,6')CH2; C-terminus assumed)
cytotoxicity (HeLa cells [2]): did not show any cytotoxicity
increase in mean fluorescence by Bpy cross-linking (HeLa cells [1]; over linear counterpart): ~6 fold

increase in MDMX activity [3]: 15 fold
Molecule: CC(=O)N[C@@H](CC(C)C)C(=O)N[C@H](C(=O)N[C@@H](Cc1ccccc1)C(=O)N[C@@H]1CSCc2ccc(cc2)-c2ccc(cc2)CSC[C@@H](C(=O)N[C@@H](CO)C(N)=O)NC(=O)[C@H](CC(C)C)NC(=O)[C@H](CCC(N)=O)NC(=O)[C@H](C)NC(=O)[C@H](Cc2c[nH]c3ccccc23)NC(=O)[C@H](Cc2ccc(O)cc2)NC(=O)[C@H](Cc2c[nH]cn2)NC1=O)[C@@H](C)O [Peptide 3a, LTFc′HYWAQLC′S] (Ac-LTF[dC]HYWAQLCS-NH2; linker 4-11 via Biphenyl(4,4'-CH2)2)

increase in MDMX activity [3]: 24 fold
Molecule: CC(=O)N[C@@H](CC(C)C)C(=O)N[C@H](C(=O)N[C@@H](Cc1ccccc1)C(=O)N[C@@H]1CSCc2ccc(cn2)-c2ccc(nc2)CSC[C@@H](C(=O)N[C@@H](CO)C(N)=O)NC(=O)[C@H](CC(C)C)NC(=O)[C@H](CCC(N)=O)NC(=O)[C@H](C)NC(=O)[C@H](Cc2c[nH]c3ccccc23)NC(=O)[C@H](Cc2ccc(O)cc2)NC(=O)[C@H](Cc2c[nH]cn2)NC1=O)[C@@H](C)O [Peptide 3b, LTFc″HYWAQLC″S] (Ac-LTF[dC]HYWAQLCS-NH2; linker 4-11 via CH2(3,3'-bipyridine-6,6')CH2)
cytotoxicity (HeLa cells [2]): did not show any cytotoxicity

enhancement in percent helicity [4]: roughly 2 fold
IC50 (Mcl-1 [5]): 75 nM
IC50 (GST-Mcl-1): 18 ± 6 nM
increase in activity in FPA (GST-Mcl-1; compared to the parent linear peptide): 67 fold
Molecule: CC[C@H](C)[C@@H]1NC(=O)[C@H](CCCNC(=N)N)NC(=O)[C@H](CCCNC(=N)N)NC(=O)[C@H](CC(C)C)NC(=O)[C@@H](NC(=O)[C@H](C)NC(=O)[C@H](C)NC(C)=O)CSCc2ccc(cc2)-c2ccc(cc2)CSC[C@@H](C(=O)N[C@H](C(=O)N[C@@H](CC(N)=O)C(=O)N[C@@H](CC(C)C)C(=O)N[C@@H](CCCNC(=N)N)C(=O)N[C@@H](CCC(N)=O)C(=O)N[C@@H](CCCCN)C(=O)N[C@@H](CC(C)C)C(=O)N[C@@H](CC(C)C)C(=O)N[C@@H](CC(N)=O)C(N)=O)C(C)C)NC(=O)[C@H](CC(=O)O)NC(=O)CNC1=O [Peptide 5a]

enhancement in percent helicity [4]: roughly 2 fold
IC50 (Mcl-1 [5]): 25 nM
IC50 (GST-Mcl-1): 45 ± 9 nM
half-life at 0.208 mM (chymotrypsin): 22 min
Molecule: CC[C@H](C)[C@@H]1NC(=O)[C@H](CCCNC(=N)N)NC(=O)[C@H](CCCNC(=N)N)NC(=O)[C@H](CC(C)C)NC(=O)[C@@H](NC(=O)[C@H](C)NC(=O)[C@H](C)NC(C)=O)CSCc2ccc(cn2)-c2ccc(nc2)CSC[C@@H](C(=O)N[C@H](C(=O)N[C@@H](CC(N)=O)C(=O)N[C@@H](CC(C)C)C(=O)N[C@@H](CCCNC(=N)N)C(=O)N[C@@H](CCC(N)=O)C(=O)N[C@@H](CCCCN)C(=O)N[C@@H](CC(C)C)C(=O)N[C@@H](CC(C)C)C(=O)N[C@@H](CC(N)=O)C(N)=O)C(C)C)NC(=O)[C@H](CC(=O)O)NC(=O)CNC1=O [Peptide 5b]

Molecule: LTFCRYWARLCS (LTFCRYWARLCS-NH2; linker 4-11 via BMA (inferred); not fully specified) [Peptide 2, linear arginine-substituted dicysteine PDI analog]
increase in mean fluorescence / permeability by arginine substitution (HeLa cells [1]; compared to charge-neutral counterpart): 2.5 fold

Molecule: NoxaA-(16-41): BH3 peptide derived from mouse Noxa (RAELPPEFAAQLRKIGDKVYCTWSAP; UniProt Q9JM54 16-41, looked up, fragment)
IC50 (Mcl-1 [6]): 87 nM

Molecule: NoxaB-(68-93): BH3 peptide derived from mouse Noxa (PADLKDECAQLRRIGDKVNLRQKLLN; UniProt Q9JM54 68-93, looked up, fragment)
IC50 (Mcl-1 [6]): 109 nM
